Measurements as given in patent publication US20140349340A1, “MBTH-LIKE PROTEINS IN THE PRODUCTION OF SEMI SYNTHETIC ANTIBIOTICS” (DSM SINOCHEM PHARMACEUTICALS NETHERLANDS B.V., priority 2012, published 2014).

How the values were obtained:
Type in all cases: biochemical
[1] = PPi release assay, adenylation activity with L-hydroxyphenylglycine; details: substrate L-hydroxyphenylglycine
Source text: (§1) These assays use inorganic pyrophosphatases to convert PPi produced during aminoacyl-AMP formation to orthophosphate (Pi). To measure Pi concentrations some of these assays use molybdate/malachite green reagent for colorimetric detection (McQuade et al. 2008) or, as used in the context of the present invention, a shift in absorbance maximum by conversion of 7-methyl-6-thioguanosine (MESG) by purine nucleoside phosphorylase (Ehmann D. E. et al. (Proc. Natl. Acad. Sci. (2000) 97, 2509-2514) or Daniel & Aldrich (Anal. Biochem. (2010) 404, 56-63)).
(§2) To determine the adenylation activity of the adenylation domains, the Enzchek® pyrophosphate assay kit (Life Technologies) was used as described by Ehmann D. E. et al. (Proc Nat Acad Science (2000) 97, 2509-2514) with small modifications. The reactions were performed 96 wells UV/Vis transparent plates (BD Falcon). The reaction mixture comprises 50 mM HEPES pH 8.0, 10 mM MgCl2, 5 mM ATP, 75 mM DTT, 0.03 U Inorganic Pyrophosphatase (IP), 1 U Purine Nucleoside Phosphorylase (PNP) and 0.2 mM MESG in a volume of 70 μl. Next 20 μl (around 0.5-2 μM final concentration) of purified A(T) domain, with or without co-purification of the MbtH like helper protein was added and the reaction was pre-incubated for 15 minutes at RT to reduce contaminating Pi. Following the pre-incubation, 10 μl of a 10 mM or 1 mM solution of the appropriate amino acid depending on the performed specificity determination was added to initiate the adenylation reaction and the absorbance at 360 nm was measured using a TECAN I Control spectrophotometer. Absorbance measurements were made every 5 to 10 min over a period of up to 240 min. A reaction with addition of 10 μl MilliQ water instead was used to determine and subtract the background absorbance. As substrates the following amino acids were used: D- or L-phenylalanine, D- or L-hydroxyphenylglycine, D- or L-phenylglycine, L-tryptophan, L-valine, L-cysteine, and L-leucine.

[2] = PPi release assay, adenylation activity with L-phenylalanine; details: substrate L-phenylalanine
Source text: as §1, §2

[3] = PPi release assay, adenylation activity with D-phenylglycine; details: substrate D-phenylglycine; co-purified with Tcp13, or Tcp17 or VMbtH
Source text: as §1, §2

[4] = PPi release assay, adenylation activity with D-phenylalanine; details: substrate D-phenylalanine
Source text: as §1, §2

[5] = PPi release assay, adenylation activity with D-hydroxyphenylglycine; details: substrate D-hydroxyphenylglycine
Source text: as §1, §2

[6] = PPi release assay, adenylation activity with L-phenylglycine; details: substrate L-phenylglycine; co-purified with Tcp13, or Tcp17 or VMbtH
Source text: as §1, §2

[7] = co-purified with Tcp13, or Tcp17 or VMbtH
[8] = protein alone, without MbtH-like protein

BpsB_M1_A: purified adenylation domain of BpsB module M1 (SEQ ID NO: 26); Amycolatopsis balhimycina
adenylation activity (PPi release assay) ([1]; co-purified with MbtH-like protein BMbtH): confirmed its activity
adenylation activity (PPi release assay) [1, 7]: no adenylation activity
adenylation activity (absorption 360 nm, PPi release assay) [1, 8]: No adenylation activity
adenylation activity (PPi release assay) [2, 7]: no adenylation activity
adenylation activity (absorption 360 nm, PPi release assay) [2, 8]: No adenylation activity
adenylation activity (PPi release assay) [3]: no adenylation activity
adenylation activity (PPi release assay) [4, 7]: no adenylation activity
adenylation activity (absorption 360 nm, PPi release assay) [4, 8]: No adenylation activity
adenylation activity (PPi release assay) [5, 7]: no adenylation activity
adenylation activity (absorption 360 nm, PPi release assay) [5, 8]: No adenylation activity
adenylation activity (PPi release assay) [6]: no adenylation activity
